This is an account of results in patent publication EP2711366A1, “Cationic triphenylamine derivatives activable by visible and Infra Red light for inducing and imaging apoptosis in cancer cells” (Institut Curie, priority 2012, dated 2014).

Read-outs that look alike come from different tables or passages of the source. Numbered stars: 1 amine (or outer) side, 2 acyl side, 3 side chain; on linkers, the order of the positions; unused ones are H or OH. Bridge positions count the residues as written; N and C are the ends. Square brackets hold non-standard residues; d marks the D form. Peptide text beside a SMILES is read from it. I, II: the chains in the order shown. Actinocin(9to1) = Cc1c2oc3c(C)ccc(C(=O)[*:1])c3nc-2c(C(=O)[*:2])c(N)c1=O; NMeV = CN[C@H](C(=O)O)C(C)C; Sar = CNCC(=O)O

In data set [1] the test system is MCF-7 cells. The experiment in a line: FITC-conjugated Annexin V staining, flow cytometric analysis (apoptosis). Type of data set: cell-based. To be noted: proapoptotic controls, no illumination; ActD 1µg/mL; CPT 10µM for 2.5 hours. How it is done: MCF-7 cells were plated in 12-well plates (2.10^5 cells/well) and incubated with 2µM of TP2Py for 2h at 37°C. Under specific conditions (see Fig. 12), cells were further incubated with NAC (1mM) for 30 min, Bapta-AM (20µM) for 3h, or CsA (10µM) for 1h at 37°C. After a time illumination of either 30 or 60 min at […] (Mercury lamp (130W; 380-600nm) + excitation filter centered at 452nm (± 45nm)), cells were gently scraped and pooled with medium floating cells. Cells were individualized in PBS-EDTA (10mM) and stained as described by the manufacturer (Roche, Germany). Briefly, the cell pellet was re-suspended in 500µl Annexin V-HEPES solution (10 mM HEPES-NaOH, pH 7.4, 140mM NaCl, 5mM CaCl2) and incubated on ice for 30 min in the dark. Cells were then washed in ice-cold HEPES buffer before analysis. Fluorescence signals of fluorescently labelled (FITC) Annexin V and TP2Py were measured by a FACSCalibur flow cytometer (Becton-Dickinson, Sunnyvale, CA, USA) using FL1 and FL2 detectors, respectively.
Different experiments are summarized below: • MCF-7 cells treated with 2µM TP2Py for 2 hours and then stained with FITC-conjugated Annexin V immediately (Fig.12A) without light exposure; • MCF-7 cells treated with 2µM TP2Py for 2 hours and then stained with FITC-conjugated Annexin V after a time illumination (Exc, 452 nm) of 30 min (Fig.12B); • MCF-7 cells treated with 2µM TP2Py for 2 hours and then stained with FITC-conjugated Annexin V after a time illumination (Exc, 452 nm) of 60 min (Fig.12C); • control MCF-7 cells treated with DMSO (1%) only and illuminated for 30 min before Annexin V staining (Fig.12D); • control MCF-7 cells treated with 1µg/mL actinomycin D (ActD), no illumination before Annexin V staining (Fig.12E); • control MCF-7 cells treated with camptothecin (CPT, 10µM)) (Fig.12F) for 2.5 hours, no illumination before Annexin V staining; • MCF-7 cells treated during 2 hours with 2µM TP2Py and 10µM cyclosporine A (CsA) and illuminated for 30 min before Annexin V staining (Fig.12G); • MCF-7 cells treated during 2 hours with 2µM TP2Py and 1 mM N-Acetyl cysteine (NAC) and illuminated for 30 min before Annexin V staining (Fig.12H); and • MCF-7 cells treated during 2 hours with 2µM TP2Py and 20µM Bapta-am (Fig.12I) and illuminated for 30 min before Annexin V staining.
The horizontal (FL1-H) and vertical (FL2-H) axes correspond to the fluorescence signal of Annexin V and TP2Py, respectively. The percentage of population with a high mean fluorescence signal is indicated in the corresponding quadrant (top right or bottom right in the presence or absence of TP2Py, respectively).
Background: A flow cytometer gives signals particle by particle.

The conditions of data set [2]: 532 or 665-nm line laser sources; cited from earlier work.
The conditions of data set [3]: cited from earlier work.
For data set [4] the following is noted: at 630 nm; cited from earlier work.
The nature of data set [5]: Dark toxicity (MTT assay, without illumination). In kind it is cell-based. To be noted: human; MCF-7 cells, tested in dark; read-out: TC50 (toxicity concentration 50%), dark toxicity. For orientation: Formazan colour is commonly taken as a measure of viable cells.
Method: (§1) Different experiments were conducted and described below: • MCF7 cells were treated with 2µM of TP2Py or TP3Bzim and exposed to illumination (Fig.9A); • HeLa cells were treated with 2µM of TP2Py or TP3Bzim and exposed to illumination (Fig.9B); • MCF7 cells were treated with TP2Py, 40 min illumination (black circles) or without illumination (white circles) (Fig.9C) • HeLa cells were treated with TP2Py [30 min illumination (black circles) or without illumination (white circles)] or TP3Bzim [15 min illumination (black triangles) or without illumination (white triangles)]
(§2) For each experiment, the source of excitation was a Mercury lamp (130W; 380-600nm) with an excitation filter centered at 452nm (± 45 nm), irradiance, 60mW/cm^2.
(§3) First, the experiment was calibrated by determining the time of illumination exposure which leads to the toxicity 50%, for a given concentration of TPA (2 µM) and for an irradiance of 60mW/cm^2. […] This characteristic time was then used for the plots shown in Fig. 9C and 9D which represent the cell viability as a function of TPA concentration (in HeLa and MCF-7 cells, respectively).
Data set [6] deals with living MCF-7 cells. As to the kind of experiment: One-photon confocal fluorescence microscopy, photo-induced nuclear translocation and membrane blebbing. Type of data set: cell-based. The settings on record: 2µM, 2 hours, confocal, λexc 458 nm (Fig. 5). How it is done:
One-photon epifluorescence and confocal images were obtained using a SP2 confocal microscope (Leica MicroSystem) equipped with an incubation chamber (37°C, CO2 5%). Excitation and emission filters for epifluorescence were 450-490 nm and 515-700 nm, respectively. A continuous laser line (458 nm) was used for excitation in the confocal mode.
The photo-induced nuclear translocation and membrane blebbing were next assessed using confocal fluorescence microscopy [λexc = 458 nm; emission slit settings: 560-720nm and 530-690nm for TP2Py and TP3Bzim, respectively] under experimental conditions similar to those described in experiment 1 for epifluorescence experiments. The corresponding transmission images illustrating the concomitant membrane blebbing are shown below the confocal fluorescence images. Living MCF7 cells were incubated with 2µM TP3Bzim or TP2Py for 2 hours before observation. As shown in Fig. 5A (TP2Py) and in Fig. 5B (TP3BZim), the results obtained with confocal imaging were similar to those obtained with epifluorescence imaging (experiment 1), with however, some discrepancies in the time courses of event appearance, most likely due to the power of the excitation source which is different between epifluorescence and confocal experiments (see below). […] Based on both criteria (re-localization of the fluorescence signal and the formation of blebs), the deduced fluences were 22 and 40 J/cm^2 for TP2Py and TP3Bzim, respectively. […]
The TP2Py compound at a concentration of 2 µM was first incubated with living MCF-7 cells for 2 hours and then observed with confocal microscope with varying illumination power of the laser source [λ=458 nm; emission slit setting: 560-720 nm]. […] For each condition, the fluorescence intensity in ROIs corresponding to the nucleus was plotted as a function of time (the initial time value, t = 0, represents the first observation) (FIG.7C). Using integration time based on tmax values, light dose values, determined from experiments performed at irradiance of 5.6 or 30 mW/cm^2, were consistent (27.6 and 27 J/cm^2 respectively). These values are in accordance with the above-mentioned value for TP2Py (fluence, 22 J/cm^2 in Fig. 5).
Living MCF-7 cells were treated with varying concentrations of TP2Py for two hours (2µM; 0.2µM and 0.02µM) and observed with a confocal microscope [λexc = 458nm; irradiance 30mW/cm^2, emission slit setting: 560-720nm.] (FIG 8A: 2µM; FIG 8B: 0.2µM; FIGBC: 0.02µM).

In data set [7] the test system is HeLa cells.
Method: as §1, §2, §3
In data set [8] the test system is DNA. The settings on record: b156 attributes 634 nm to DNA-bound TP2Py in vitro (Allains et al. 2007); cited from earlier work.
For data set [9], the system named is HeLa cells. The experiment in a line: Cytophototoxicity by MTT assay under illumination. To be noted: irradiance 60mW/cm^2. In kind it is cell-based.
Method: as §1, §2, §3
For data set [10] the following is noted: in water up to 10 µM; cited from earlier work.

Consider `Cc1c2oc3c(C)ccc(C(=O)N[C@@H]4C(=O)N[C@H](C(C)C)C(=O)N5CCC[C@H]5C(=O)N(C)CC(=O)N(C)[C@@H](C(C)C)C(=O)O[C@@H]4C)c3nc-2c(C(=O)N[C@@H]2C(=O)N[C@H](C(C)C)C(=O)N3CCC[C@H]3C(=O)N(C)CC(=O)N(C)[C@@H](C(C)C)C(=O)O[C@@H]2C)c(N)c1=O` [actinomycin D, reference compound] (I: T[dV]P[Sar][NMeV] / II: T[dV]P[Sar][NMeV]; ester I:1-I:C, II:1-II:C; linker I:N-II:N via Actinocin(9to1)), for which, in data set [1], the “HMFI population (Annexin V positive, TP2Py negative)” value amounted to 34%. As for `CN(C)c1ccc2nc3ccc(=[N+](C)C)cc-3sc2c1` [MB, methylene blue], in data set [2], the “total fluence or light dose” value is recorded as 1.7 J/cm^2. For Photofrin®, the figures for the two-photon cross-section in [3] (at 800 nm) and in data set [3] (at 900 nm) were 10 GM and 5 GM, respectively. Moreover, in data set [4], the extinction coefficient was 3200 M⁻¹ cm⁻¹. Consider `CC[C@@]1(O)C(=O)OCc2c1cc1n(c2=O)Cc2cc3ccccc3nc2-1` [camptothecin, reference compound], for which the “HMFI population (Annexin V positive, TP2Py negative)” value in data set [1] was 37%. Consider `Cn1c(/C=C/c2ccc(N(c3ccccc3)c3ccc(/C=C/c4n(C)c5ccccc5[n+]4C)cc3)cc2)[n+](C)c2ccccc21` [Tp2Bzim], for which the CC50 in [5] was 10 µM.

In the case of `Cn1c(/C=C/c2ccc(N(c3ccc(/C=C/c4n(C)c5ccccc5[n+]4C)cc3)c3ccc(/C=C/c4n(C)c5ccccc5[n+]4C)cc3)cc2)[n+](C)c2ccccc21` [TP3Bzim], the “deduced fluence (re-localization of the fluorescence signal and formation of blebs)” value in data set [6] was 40 J/cm^2. Besides, the “dark toxicity (concentration below which negligible)” value in data set [7] is reported as no less than 50 µM. The “λmax,emission” value in data set [8] is 572 nm. Moreover, in data set [9] (Mercury lamp, filter 452nm), the “illumination time required for the same TC50 under illumination” value is listed as 15 min. In data set [9], this molecule yielded a corresponding light dose of 54 J/cm^2. Moreover, the CC50 in data set [5] is greater than 30 µM.

On to `C[n+]1ccccc1/C=C/c1ccc(N(c2ccccc2)c2ccc(/C=C/c3cccc[n+]3C)cc2)cc1` [Tp2Pyo], for which the CC50 in data set [5] is 20 µM. With `CN(C)c1ccc(C(=C2C=CC(=[N+](C)C)C=C2)c2ccc(N(C)C)cc2)cc1` [CV, crystal violet], the “total fluence or light dose” value in data set [2] was 1.7 J/cm^2. As to `CC(=O)Oc1c(I)cc2c(c1I)Oc1c(cc(I)c(OC(C)=O)c1I)C21OC(=O)c2c(Cl)c(Cl)c(Cl)c(Cl)c21` [RBA, Rose Bengal acetate], the “total fluence or light dose” value in data set [2] is reported as 1.6 J/cm^2. `C=Cc1c(C)c2cc3nc(c(CC(=O)O)c4[nH]c(cc5nc(cc1[nH]2)C(C)=C5CC)c(C)c4C(=O)O)[C@@H](CCC(=O)O)[C@@H]3C` [chlorin e6]: the quantum yield in data set [10] is reported as 0.008-0.01. Besides, in data set [3] (at 800 nm), the two-photon cross-section is recorded as 29 GM.
